The experiment deals with isomerase (recovery of 11-cis-retinal after bleaching). The experiment in a line: In vivo murine isomerase assay (Table 3). To be noted: Mus musculus, po, mice.

Procedure: The capability of compounds described herein to inhibit isomerase was determined by an in vivo murine isomerase assay. […] The recovery of 11-cis-retinal after bleaching can be used to estimate the activity of isomerase in vivo. Delayed recovery, as represented by lower 11-cis-retinal oxime levels, indicates inhibition of isomerization reaction.
Mice were gavaged with the test compound. […] The mice were allowed to recover 2 hours in the dark. The animals were then sacrificed by carbon dioxide inhalation. Retinoids were extracted from the eye and the regeneration of 11-cis-retinal was assessed at various time intervals.
After the mice were sacrificed, the eyes were immediately removed and placed in liquid nitrogen for storage.
The eyes were placed in 500 μL of bis-tris propane buffer (10 mM, pH˜7.3) and 20 μL of 0.8M hydroxile amine (pH˜7.3). The eyes were cut up into small pieces with small iris scissors and then thoroughly homogenized at 30000 rpm with a mechanical homogenizer (Polytron PT 1300 D) in the tube until no visible tissue remained. 500 μL of methanol and 500 μL of heptane were added to each tube. The tubes were attached to a vortexer so that the contents were mixed thoroughly for 15 minutes in room temperature. The organic phase was separated from the aqueous phase by centrifugation for 10 min at 13K rpm, 4° C. 240 μL of the solution from the top layer (organic phase) was removed and transferred to clean 300 μl glass inserts in HPLC vials using glass pipette and the vials were crimped shut tightly.
The samples were analyzed on an Agilent 1100 HPLC system with normal phase column: SILICA (Beckman Coutlier, dp 5 μm, 4.6 mM×250 mM). […] Loading volume for each sample was 100 μl; detection wavelength was 360 nm. The area under the curve for 11-cis retinal oxime was calculated by Agilent Chemstation software and was recorded manually. Data processing was performed using Prizm software.
Positive control mice (no compound administered) were sacrificed fully dark-adapted and the eye retinoids analyzed. Light (bleached) control mice (no compound administered) were sacrificed and retinoids isolated and analyzed immediately after light treatment.
A time course study was performed to determine the isomerase inhibitory activity of the test compound. […] The animals were then “photo-bleached” (5000 Lux white light for 10 minutes) at 2, 4, 8, 16 and 24 hours after dosing, and returned to darkness to allow recovery of the 11-cis-retinal content of the eyes. Mice were sacrificed 2 hours after bleaching, eyes were enucleated, and retinoid content is analyzed by HPLC.
Recovery control mice (vehicle-only treated) were light-treated and left to recover for 2 hours in the dark before sacrifice and analysis. Light control mice (vehicle only treated) were sacrificed for analysis immediately after photo-bleaching.
An in vivo dose response isomerase inhibition study was performed with test compound. […] Recovery and retinoid analysis were performed as described above. Dark control mice were vehicle-only treated, sacrificed fully dark adapted without light treatment, and analyzed. Recovery control mice and light control mice were included in the study as per the initial phase.

`NCC[C@@H](O)c1cccc(OCc2cccs2)c1` [Example 28, (R)-3-Amino-1-(3-(thiophen-2-ylmethoxy)phenyl)propan-1-ol]: the inhibition at 1 mg/kg (4 h) worked out at 50.6%.
Consider `CC(=O)N1CCC(COc2cccc([C@H](O)CCN)c2)CC1` [Example 11, (R)-1-(4-((3-(3-Amino-1-hydroxypropyl)phenoxy)methyl)piperidin-1-yl)ethanone], for which the inhibition at 1 mg/kg (2 h) is -4.7%, the inhibition at 1 mg/kg (4 h) was 2.6% and the inhibition at 1 mg/kg (8 h) is -3.8%.
Turning to `NCC[C@@H](O)c1cccc(OCc2ccsc2)c1` [Example 29, (R)-3-Amino-1-(3-(thiophen-3-ylmethoxy)phenyl)propan-1-ol], the inhibition at 1 mg/kg (4 h) came to 27.4%.
With `NCC[C@@H](O)c1cccc(OCC2CCCSC2)c1` (mixture of isomers) [Example 7, (1R)-3-Amino-1-(3-((tetrahydro-2H-thiopyran-3-yl)methoxy)phenyl)propan-1-ol], the inhibition at 1 mg/kg amounted to 60.5% (2 h), 68% (4 h) and 40.3% (8 h).
Regarding `NCC[C@@H](O)c1cccc(OCC2CCS(=O)(=O)CC2)c1` [Example 9, (R)-4-((3-(3-Amino-1-hydroxypropyl)phenoxy)methyl)tetrahydro-2H-thiopyran 1,1-dioxide], the inhibition at 1 mg/kg (4 h) was -8.2%.
For `NCC[C@@H](O)c1cccc(OCC2COc3ccccc3C2)c1` (mixture of isomers) [Example 19, (1R)-3-Amino-1-(3-(chroman-3-ylmethoxy)phenyl)propan-1-ol], the inhibition at 0.3 mg/kg (2 h) is 49.4%, the inhibition at 0.3 mg/kg (4 h) turned out to be 40% and the inhibition at 0.3 mg/kg (8 h) is 15.5%. Besides, the inhibition at 1 mg/kg (4 h) worked out at 91.4%.
In the case of `NCC[C@@H](O)c1cccc(OCC2CCCOC2)c1` (mixture of isomers) [Example 3, (1R)-3-Amino-1-(3-((tetrahydro-2H-pyran-3-yl)methoxy)phenyl)propan-1-ol], under “2 h”, the inhibition at 0.01 mg/kg stood at 1.2%, the inhibition at 0.03 mg/kg amounted to 2.7%, the inhibition at 0.1 mg/kg was 4.2% and the inhibition at 0.3 mg/kg amounted to 75.2%. For the same molecule, where the note is “2 h”, the inhibition at 1 mg/kg came to 98.7% and the inhibition at 3 mg/kg stood at 102%. Besides, under “4 h”, the inhibition at 0.3 mg/kg is 59.7% and the inhibition at 1 mg/kg turned out to be 94.2%. Besides, the inhibition at 0.3 mg/kg (8 h) amounted to 14.8%. For the same molecule, for the setting “16 h”, the inhibition at 0.3 mg/kg stood at 1.6%. Further, the inhibition at 0.3 mg/kg (24 h) came out at 4.1%.
For the molecule `NCC[C@@H](O)c1cccc(OCc2cccnc2)c1` [Example 5, (R)-3-Amino-1-(3-(pyridin-3-ylmethoxy)phenyl)propan-1-ol], the inhibition at 1 mg/kg (4 h) came out at 3.1%.
Turning to `NCC[C@@H](O)c1cccc(OCC2CCCS(=O)(=O)C2)c1` (mixture of isomers) [Example 10, 3-((3-((R)-3-Amino-1-hydroxypropyl)phenoxy)methyl)tetrahydro-2H-thiopyran 1,1-dioxide], the inhibition at 1 mg/kg (4 h) was -7.6%.
For the molecule `COC(=O)N1CCC(COc2cccc([C@H](O)CCN)c2)CC1` [Example 17, (R)-Methyl 4-((3-(3-amino-1-hydroxypropyl)phenoxy)methyl)piperidine-1-carboxylate], where the note is “2 h”, the inhibition at 0.01 mg/kg is 0%, the inhibition at 0.03 mg/kg is -2%, the inhibition at 0.1 mg/kg is 9% and the inhibition at 0.3 mg/kg turned out to be 8%. Also, under “2 h”, the inhibition at 1 mg/kg worked out at 93% and the inhibition at 3 mg/kg turned out to be 100%. The inhibition at 1 mg/kg (4 h) is 88%. Further, the inhibition at 1 mg/kg (8 h) was 25%. Besides, the inhibition at 1 mg/kg (16 h) was -1%. Further, the inhibition at 1 mg/kg (24 h) is -8%.
Turning to `NCCCc1cccc(OCC2CCOCC2)c1` [Example 32, 3-(3-((Tetrahydro-2H-pyran-4-yl)methoxy)phenyl)propan-1-amine], the inhibition at 1 mg/kg (2 h) stood at 14.2%.
On to `NCC[C@@H](O)c1cccc(OCC2CCCC(=O)N2)c1` (some centres unmarked) [Example 27], for which the inhibition at 1 mg/kg (4 h) worked out at 9%.
`Cc1cccc(COc2cccc([C@H](O)CCN)c2)n1` [Example 12, (R)-3-Amino-1-(3-((6-methylpyridin-2-yl)methoxy)phenyl)propan-1-ol]: the inhibition at 1 mg/kg (4 h) is 11.2%.
In the case of `NCC[C@@H](O)c1cccc(NCC2CCOCC2)c1` [Example 23, (R)-3-Amino-1-(3-(((tetrahydro-2H-pyran-4-yl)methyl)amino)phenyl)propan-1-ol], the inhibition at 1 mg/kg was 4.4% (2 h), -1.4% (4 h) and 1.5% (8 h).
`NCC[C@@H](O)c1cccc(OCC2Cc3ccccc3O2)c1` (mixture of isomers) [Example 13, (1R)-3-Amino-1-(3-((2,3-dihydrobenzofuran-2-yl)methoxy)phenyl)propan-1-ol]: the inhibition at 1 mg/kg (2 h) was 62.1%.
Consider `NCC[C@@H](O)c1cccc(NCC2CCCCC2)c1` [reference compound], for which, where the note is “4 h”, the inhibition at 1 mg/kg was 96%.
On to `CNCC[C@@H](O)c1cccc(OCC2CCOCC2)c1` [Example 33, (R)-3-(Methylamino)-1-(3-((tetrahydro-2H-pyran-4-yl)methoxy)phenyl)propan-1-ol], for which the inhibition at 1 mg/kg reads like this: (2 h) 65.2%; (4 h) 54.5%; (8 h) 10.9%; (16 h) -0.8%; (24 h) 1.8%.
Take `NCCC(O)c1cccc(OCC2CCOCC2)c1` (centres unmarked) [Example 2, 3-Amino-1-(3-((tetrahydro-2H-pyran-4-yl)methoxy)phenyl)propan-1-ol]: the inhibition at 1 mg/kg (4 h) turned out to be 89.9%.
As for `NCC[C@@H](O)c1cccc(OCc2ccncc2)c1` [Example 4, (R)-3-amino-1-(3-(pyridin-4-ylmethoxy)phenyl)propan-1-ol], the inhibition at 1 mg/kg (4 h) is -8.7%.
Regarding `NC/C=C/c1cccc(OCC2CCOCC2)c1` [Example 31, (E)-3-(3-((Tetrahydro-2H-pyran-4-yl)methoxy)phenyl)prop-2-en-1-amine], under “2 h”, the inhibition at 1 mg/kg was found to be 11.3%.
Consider `NCC[C@@H](O)c1cccc(OCC2CCCO2)c1` (mixture of isomers) [Example 14, (1R)-3-Amino-1-(3-((tetrahydrofuran-2-yl)methoxy)phenyl)propan-1-ol], for which the inhibition at 1 mg/kg reads like this: (2 h) 79.2%; (4 h) 59.8%; (8 h) 0.8%.
Consider `NCC[C@@H](O)c1cccc(OCC2CCSCC2)c1` [Example 8, (R)-3-Amino-1-(3-((tetrahydro-2H-thiopyran-4-yl)methoxy)phenyl)propan-1-ol], for which, under “4 h”, the inhibition at 1 mg/kg stood at 33.2%.

For the origin of these results see patent publication US20160151369A1, “SUBSTITUTED 3-PHENYLPROPYLAMINE DERIVATIVES FOR THE TREATMENT OF OPHTHALMIC DISEASES AND DISORDERS” (ACUCELA INC., priority 2013, published 2016).
